According to the NIST ThermoML archive (doi:10.1021/je401120a):
Numbers after ± are expanded uncertainties.

Experiments:
[1] = Liquid; for viscosity / electrical conductivity / speed of sound / mass density: 101 kPa; for electrical conductivity: Crison conductimeter (model GLP31); for speed of sound: Pulse-echo method; for mass density: Vibrating tube method; for vapor or sublimation pressure: Ebulliometric method (Recirculating still)
[2] = refractive index (Na D-line) (dimensionless); details: 101.33 kPa, Liquid, Standard Abbe refractometry
[3] = xn = mol fraction of the nth substance listed; details: 101 kPa, Liquid, x2 = 0; for speed of sound: Pulse-echo method; for mass density: Vibrating tube method
[4] = refractive index (Na D-line) (dimensionless); xn = mol fraction of the nth substance listed; details: 101 kPa, Liquid, Standard Abbe refractometry, x2 = 0

## CCC[n+]1ccccc1.F[B-](F)(F)F [1-propylpyridinium tetrafluoroborate]
[1]; 293.15 K
  viscosity: 160 ± 13 mPa·s
  electrical conductivity: 0.302 ± 0.006 S/m
  speed of sound: 1653.9 ± 2.4 m/s
  mass density: 1256.67 ± 1.4 kg/m3
[1]; 303.15 K
  viscosity: 90.75 ± 3.8 mPa·s
  electrical conductivity: 0.516 ± 0.01 S/m
  speed of sound: 1629.8 ± 2.4 m/s
  mass density: 1249.54 ± 1.4 kg/m3
[1]; 313.15 K
  viscosity: 56.02 ± 0.89 mPa·s
  electrical conductivity: 0.799 ± 0.016 S/m
  speed of sound: 1606.3 ± 2.4 m/s
  mass density: 1242.43 ± 1.4 kg/m3
[1]; 323.15 K
  viscosity: 36.99 ± 0.76 mPa·s
  electrical conductivity: 1.15 ± 0.023 S/m
  speed of sound: 1583.3 ± 2.3 m/s
  mass density: 1235.31 ± 1.4 kg/m3
[2]; 293.15 K
  refractive index: 1.44588 ± 0.00057
[2]; 303.15 K
  refractive index: 1.44322 ± 0.00057
[2]; 313.15 K
  refractive index: 1.44057 ± 0.00057
[2]; 323.15 K
  refractive index: 1.43792 ± 0.00057

## CO [methanol]
[1]; 293.15 K
  viscosity: 0.5833 ± 0.016 mPa·s
  speed of sound: 1118.8 ± 1.1 m/s
  mass density: 791.243 ± 0.15 kg/m3
[1]; 303.15 K
  viscosity: 0.507 ± 0.014 mPa·s
  speed of sound: 1086 ± 1.1 m/s
  mass density: 781.813 ± 0.15 kg/m3
  vapor or sublimation pressure: 21.93 ± 0.14 kPa
[1]; 313.15 K
  viscosity: 0.4438 ± 0.013 mPa·s
  speed of sound: 1053.5 ± 1.1 m/s
  mass density: 772.287 ± 0.15 kg/m3
[1]; 323.15 K
  viscosity: 0.3873 ± 0.011 mPa·s
  speed of sound: 1021.5 ± 1.1 m/s
  mass density: 762.828 ± 0.15 kg/m3
  vapor or sublimation pressure: 55.78 ± 0.27 kPa
[2]; 293.15 K
  refractive index: 1.32843 ± 0.0004
[2]; 303.15 K
  refractive index: 1.32433 ± 0.0004
[2]; 313.15 K
  refractive index: 1.32015 ± 0.0004
[2]; 323.15 K
  refractive index: 1.3167 ± 0.0004

## CO [methanol] + CCC[n+]1ccccc1.F[B-](F)(F)F
[3]; 293.15 K
  speed of sound: 1118.8 ± 1.1 m/s
  mass density: 791.243 ± 0.15 kg/m3
  viscosity: 0.5833 ± 0.016 mPa·s
[3]; 303.15 K
  speed of sound: 1086 ± 1.1 m/s
  mass density: 781.813 ± 0.15 kg/m3
  viscosity: 0.507 ± 0.014 mPa·s
[3]; 313.15 K
  speed of sound: 1053.5 ± 1.1 m/s
  mass density: 772.287 ± 0.15 kg/m3
  viscosity: 0.4438 ± 0.013 mPa·s
[3]; 323.15 K
  speed of sound: 1021.5 ± 1.1 m/s
  mass density: 762.828 ± 0.15 kg/m3
  viscosity: 0.3873 ± 0.011 mPa·s
[4]; 293.15 K
  refractive index: 1.32843 ± 0.0004
[4]; 303.15 K
  refractive index: 1.32433 ± 0.0004
[4]; 313.15 K
  refractive index: 1.32015 ± 0.0004
[4]; 323.15 K
  refractive index: 1.3167 ± 0.0004
